According to US9688712B2, “Manufacturing method for polyphenol composition” (KAO CORPORATION, priority 2010, dated 2017):
Where two headings read alike, the source gives them in different places. Each block holds one compound with its values, some of them ahead of it.

Experiments:
[1] = Measurement of log P value of the hardly water-soluble polyphenols (flask shaking method, JIS Z7260-107)
Method: The log P value is a common logarithm of the partition coefficient between 1-octanol, and water and an index indicative of a hydrophobicity of an organic compound. Larger positive log P value indicates larger hydrophobicity. […] The details are described in Examples.
[Measurement of Log P Value of the Hardly Water-Soluble Polyphenols]
First, 1-octanol and distilled water were shaken for 24 hours at 25° C. to equilibrate them. Then, 10 mg of polyphenol was weighed into a glass vial with a cap, into which each of 4 mL of the equilibrated 1-octanol and water was added. The vial was shaken for 4 days at 25° C. […] Log P value is a common logarithm of the partition coefficient between the two phases.

[2] = cited from earlier work

SMILES: COc1cc(/C=C/C(=O)CC(=O)/C=C/c2ccc(O)c(OC)c2)ccc1O [curcumin]
logP at 4 days [1]: 3.29

logP at 4 days ([1]; 1-octanol/water): 3.08
SMILES: Oc1ccc(C=Cc2cc(O)cc(O)c2)cc1 [resveratrol]

SMILES: COc1ccc([C@@H]2CC(=O)c3c(O)cc(O[C@@H]4O[C@H](CO[C@@H]5O[C@@H](C)[C@H](O)[C@@H](O)[C@H]5O)[C@@H](O)[C@H](O)[C@H]4O)cc3O2)cc1O [Hesperidin, hesperidin]
solubility in water at 25° C. [2]: 0.02 mg/g
